Source: patent US11357780B2, “Methods and compositions relating to the inhibition of IP6K1” (THE CHILDREN'S MEDICAL CENTER CORPORATION, priority 2018, dated 2022)
“Also recorded” adds a separate entry of the source.

Experiments:
platelets = assay: PolyP levels in platelets isolated from TNP-treated mice; type: in vivo, mouse; conditions: platelets from mice treated with TNP 20 mg/kg once a day for 10 days, vs DMSO-treated controls
Protocol: (§1) FIG. 6A: PolyP levels in platelets. Mice were treated with TNP or DMSO alone for 10 days (20 mg/kg body weight, once a day). The experiment was repeated three times and the data were pooled and analyzed together. Data shown are means±SEM (n=7 mice per group). FIG. 6B: LPS-induced polyP secretion in neutrophil-platelet co-cultures. Neutrophils (5×10^6) isolated from DMSO (N-DMSO) or TNP (N-TNP)-treated mice and platelets (1×10^9) isolated from DMSO (P-DMSO) or TNP (P-TNP)-treated mice were incubated in the presence of LPS (5 μg/mL) for 2 h at 37° C. Data shown are means±SEM of four experiments. FIG. 6C: LPS-induced NPA formation. Neutrophils and platelets were isolated from DMSO (untreated) and TNP-treated mice and incubated with LPS (1 μg/mL) for 2 h at 37° C. […] NPA formation was analyzed at 24 hr after the LPS instillation. […] FIG. 6H: Recruited neutrophils in alveolar spaces were quantified as volume fraction of the alveolar space using standard point-counting morphometry. […] FIG. 6I: Pulmonary edema formation was quantified as the percentage of edema area in the total parenchymal region using. […] FIG. 6J: Lung vascular permeability was evaluated by BALF total protein level. […] FIG. 6K: Lung wet weight-to-dry weight ratio was measured at 24 hr after E. coli instillation. […] NPA % was calculated as the percentage of CD66+, CD16+ and CD41 triple-positive cells (NPAs) among all CD66+ and CD16+ cells. […]

[1] = tested on: neutrophil-platelet co-cultures; assay: LPS-induced polyP secretion in neutrophil-platelet co-cultures; type: cell-based, mouse; conditions: cells from TNP-treated mice, LPS 5 μg/mL, 2 h, 37° C., vs DMSO-treated controls
Protocol: as §1

[2] = tested on: neutrophils and platelets; assay: Ex vivo neutrophil-platelet aggregate (NPA) formation, FACS; type: cell-based, mouse
Protocol: Neutrophil-platelet aggregation. Mouse and human neutrophils were isolated and purified as previously described (31). Whole blood was collected into ACD tubes and platelet-rich plasma was isolated by centrifuging twice at 100×g for 5 min. Neutrophils (0.5×106) and platelets (5×106) were incubated for 2 h at 37° C. with LPS in 1 ml Tyrode's buffer (Sigma) supplemented with 1% BSA. After incubation, mouse neutrophils and platelets were stained with CD11b, CD41, and Ly6G and analyzed by flow cytometry to detect NPAs. Human neutrophils and platelets were stained with CD66, CD16, and CD41. NPA % was calculated as the percentage of CD66+, CD16+ and CD41 triple-positive cells (NPAs) among all CD66+ and CD16+ cells.
Flow cytometry. Murine neutrophils and platelets were incubated as described above. Cells were then harvested, washed with ice-cold PBS, and stained with APC0-CD11b (eBioscience), PE-CY7-Ly6G (BD Bioscience), FITC-CD41 (eBioscience), and […] to detect leukocyte and platelet antigens. Samples were examined with a FACSCanto II™ flow cytometer (Becton Dickinson). Neutrophils were gated by their forward- and side-scatter characteristics and by their Ly-6G+/CD11b+ (neutrophil) expression pattern (30). Platelets were detected by CD41 staining NPAs were Ly-6G+CD41+. All data were analyzed using FlowJo™ software (TreeStar; FlowJo LLC).

[3] = tested on: LPS-induced lung inflammation; assay: LPS-induced lung inflammation in mice; type: in vivo, mouse; conditions: TNP-treated mice, 5 mg/kg LPS intratracheal, 24 hr
Protocol: Bacteria or LPS-induced acute pneumonia. After anesthesia with ketamine hydrochloride (100 mg/kg intraperitoneally (i.p.)) and xylazine (10 mg/kg i.p.), mouse tracheas were surgically exposed and a total volume of 40 μl of saline, a dose of 2×10^6 cfu of E. coli (strain 19138; American Type Culture Collection), a dose of 5×10^8 cfu of Stapyhlococcus aureus (strain 10390; American Type Culture Collection), or the indicated amount of LPS (LPS from E. coli O111:B4 or LPS from E. coli O157:H7; Sigma-Aldrich was instilled intratracheally via an angiocatheter inserted through the trachea and into the left bronchus. Colloidal carbon (1%) was included in the instillate to indicate deposition. […]
Neutrophil accumulation. […] The total number of cells in the BALF was counted by hemocytometry. […] The percentage of neutrophils in the whole population (% PMN) was determined accordingly. Total numbers of neutrophils (#PMN) recruited was calculated as follows: [#PMN]=[cell density]×volume×[% PMN]. Emigrated neutrophils in the alveolar air spaces were also quantified by morphometric analysis of tissue sections. Emigrated neutrophils in lung sections (5 mice/group) 24 h after infection were quantified using standard point-counting morphometry (7). […] At least three grids (300 points) were counted for each lung. […]

E. coli = assay: E. coli-induced bacterial pneumonia in mice; type: in vivo, mouse
Protocol: Bacteria or LPS-induced acute pneumonia. After anesthesia with ketamine hydrochloride (100 mg/kg intraperitoneally (i.p.)) and xylazine (10 mg/kg i.p.), mouse tracheas were surgically exposed and a total volume of 40 μl of saline, a dose of 2×10^6 cfu of E. coli (strain 19138; American Type Culture Collection), a dose of 5×10^8 cfu of Stapyhlococcus aureus (strain 10390; American Type Culture Collection), or the indicated amount of LPS (LPS from E. coli O111:B4 or LPS from E. coli O157:H7; Sigma-Aldrich was instilled intratracheally via an angiocatheter inserted through the trachea and into the left bronchus. Colloidal carbon (1%) was included in the instillate to indicate deposition. After surgery and wound closure, mice were suspended by their front legs to help deliver the instillate deep into the left lobe before being placed back into the cage with soft and warm bedding for recovery. Mice were euthanized by CO2 at each time point. For polyP treatment, Medium Chain Polyphosphate (p100) (Kerafast Inc) was injected intraperitoneally (50 μg/g body weight) 10 min after the instillation of LPS. For treatment with IP6K1 inhibitor TNP (N2-(m-(trifluoromethyl)benzyl) N6-(p-nitrobenzyl)purine), mice were injected intraperitoneally with TNP once a day (20 mg/kg body weight) for 10 days before the induction of lung inflammation. TNP (Tocris Bioscience) was dissolved in DMSO/Tween80/water (1/1/8) at a concentration of 2 mg/ml and was injected directly without dilution.
Neutrophil accumulation. WT and Ip6k1-KO mice were anesthetized and instilled with bacteria or LPS as described above. After 24 h, mice were euthanized by CO2. The chest cavity was opened and a catheter was tied to the trachea. Bronchoalveolar lavage (BAL) was performed (1 mL PBS/15 mM EDTA×10) in each group. The BAL fluid (BALF) was centrifuged at 450×g for 10 min. The total number of cells in the BALF was counted by hemocytometry. Differential cell counts were conducted on cytospin preparations stained with a modified Wright-Giemsa stain (Volu-Sol, Inc.). Neutrophils were identified by their lobular or segmented nuclei. The percentage of neutrophils in the whole population (% PMN) was determined accordingly. Total numbers of neutrophils (#PMN) recruited was calculated as follows: [#PMN]=[cell density]×volume×[% PMN]. Emigrated neutrophils in the alveolar air spaces were also quantified by morphometric analysis of tissue sections. Emigrated neutrophils in lung sections (5 mice/group) 24 h after infection were quantified using standard point-counting morphometry (7). Briefly, mice were euthanized and their hearts tied off to maintain pulmonary blood volume. Lungs were then excised and fixed by intratracheal instillation of Bouin's solution at a pressure of 23 cm H2O and embedded in paraffin. Five to 6 μm-thick sections were cut and stained with hematoxylin and eosin (H&E). Neutrophils could be easily recognized by their lobular or segmented nuclei under high magnification. A counting grid (10×10, covering 70,000 μm2 of the magnified field) was reflected onto the field of view using a drawing tube. Randomly selected fields of pneumonic peripheral lung largely free of non-capillary blood vessels and bronchioles or larger airways were examined. At least three grids (300 points) were counted for each lung. The relative volumes of the parenchymal regions occupied by emigrated neutrophils were calculated by investigators blinded to the identities of the mice and were expressed as a percentage of the total parenchymal region volume (including both tissue and air spaces).
BALF total protein levels and cytokine/chemokine levels. BALF samples were obtained from mice 24 h after E. coli challenge. BAL was performed with 1 ml cold PBS/15 mM EDTA flushed in and out three times. Protein concentrations were measured in BALF using the Bio-Rad protein assay reagent. A standard curve was constructed using BSA. […]

human platelets = assay: PolyP levels in human platelets; type: cell-based; conditions: TNP 20 μM, room temperature, 4 days
[4] = tested on: human primary neutrophils and platelets; assay: NPA formation between human neutrophils and platelets; type: cell-based
Protocol: as §1

[5] = tested on: PtdIns(3,4,5)P3 signaling; assay: PtdIns(3,4,5)P3 signaling (phospho-Akt western blot) in mouse neutrophils; type: cell-based
Protocol: Mice were treated with TNP for 10 days (20 mg/kg body weight, once a day). Bone marrow neutrophils were isolated and lysed. Total/phosphorylated Akt in cell lysates was detected by western blotting. Relative amounts of phosphorylated Akt were quantified with NIH ImageJ™ software. Data shown are means±SEM of four experiments. *p<0.05 vs. neutrophils isolated from mice treated with DMSO alone

[6] = tested on: PtdIns(3,4,5)P3 signaling; assay: PtdIns(3,4,5)P3 signaling in human neutrophils; type: cell-based; conditions: human neutrophils treated with TNP

Molecule: O=[N+]([O-])c1ccc(CNc2nc(NCc3cccc(C(F)(F)F)c3)nc3nc[nH]c23)cc1 [TNP, N2-(m-(trifluoromethyl)benzyl) N6-(p-nitrobenzyl)purine]
- intracellular polyP levels in platelets (platelets): reduced
- LPS-elicited polyP secretion [1]: reduced
- LPS-induced ex vivo NPA formation ([2]; neutrophils and platelets from TNP-treated mice, LPS 1 μg/mL, 2 h): inhibited
- infection-induced NPA formation in the lungs of live mice [3]: inhibited
- bactericidal activity (bacterial killing in inflamed lungs) (E. coli; TNP 20 mg/kg i.p. once a day for 10 days before E. coli instillation): much improved
- edema formation (E. coli; TNP-treated mice): less edema formation
- neutrophil accumulation in the inflamed lungs, BALF neutrophil counts (E. coli; TNP-treated mice): suppressed
- neutrophil accumulation in the inflamed lungs, morphometric analysis of lung sections (E. coli; TNP-treated mice): suppressed
- total BALF protein levels (E. coli; TNP-treated mice): decreased
- pulmonary vascular permeability by lung wet-to-dry ratio (E. coli; TNP-treated mice, 24 hr after E. coli instillation): reduction
- polyP levels in human platelets (human platelets): reduced
- NPA formation ([4]; TNP-treated neutrophils and untreated platelets): unaltered
- LPS-induced NPA formation ([4]; human primary neutrophils and platelets treated with TNP): suppressed
- PtdIns(3,4,5)P3-mediated cellular functions ([5]; mouse neutrophils treated with TNP): elevated
- PtdIns(3,4,5)P3 signaling, assessed by phospho-Akt ([5]; mouse neutrophils, TNP 20 mg/kg once a day for 10 days, bone marrow neutrophils): substantially enhanced; also recorded: elevated
- PtdIns(3,4,5)P3-mediated cellular functions [6]: elevated
- PtdIns(3,4,5)P3 signaling [6]: substantially enhanced

Molecule: HOE140
- LPS-induced NPA formation ([2]; neutrophils pretreated with HOE140 150 nM for 5 min): inhibited

Molecule: LYS-BK
- NPA formation between IP6K1-deficient platelets and neutrophils ([2]; Lys-BK 1 μM together with HKa): could not restore NPA formation

B1: MIP2: a common proinflammatory cytokine (protein, UniProt P10889 28-100, looked up)
C-X-C motif chemokine 2: AVVASELRCQCLKTLPRVDFKNIQSLSVTPPGPHCAQTEVIATLKGGQKVCLDPEAPLVQKIIQKILNKGKAN
- NPA formation ([2]; MIP2 1 nM in place of LPS): failed to induce the same NPA formation
